Laboratory results taken from patent US9216973B2, “Insecticidal compounds” (Syngenta Participations AG, priority 2008, dated 2015).

Assays:
Format in all cases: in vivo
[1] = system: Diabrotica balteata (Corn root worm); assay: Diabrotica balteata larvae test on artificial diet; settings: for pest or weed control at 200 ppm: 120 h, 200 ppm (concentration in well 18 ppm), artificial diet, L2 larvae, larval mortality and growth regulation after 5 days; for effect on mortality, feeding behavior, or growth regulation: same protocol, 200 ppm
Protocol: (§1) This Example illustrates the insecticidal and acaricidal properties of compounds of formula (I). The tests were performed as follows:
(§2) Cotton leaf discs were placed on agar in a 24-well microtiter plate and sprayed with test solutions at an application rate of 200 ppm. After drying, the leaf discs were infested with 5 L1 larvae. The samples were checked for mortality, feeding behavior, and growth regulation 3 days after treatment (DAT). The following compound gave at least 80% control of Spodoptera littoralis: A1, A2, A5, A6, A7, A8, A10, A11, A12, A13, A14, A15, A16, A17, A18, A19, A21, A22, A23, A24, A25, A30, A31, A32, A33, A34, A35, A39, A40, A41 A42, A43, A44, A45, A46, A47, A48, A49, A50, A51, A53, A54, A55, A59, A60, A61, A62. Heliothis virescens (Tobacco budworm): Eggs (0-24 h old) were placed in 24-well microtiter plate on artificial diet and treated with test solutions at an application rate of 200 ppm (concentration in well 18 ppm) by pipetting. After an incubation period of 4 days, samples were checked for egg mortality, larval mortality, and growth regulation. The following compound gave at least 80% control of Heliothis virescens: A1, A2, A3, A4, A5, A6, A7, A8, A10, A11, A12, A13, A14, A15, A16, A18, A19, A21, A22, A24, A25, A30, A31, A32, A33, A34, A35, A37, A38, A39, A40, A42, A43, A44, A45, A46, A47, A48, A49, A50, A51, A55, AA57, A58, A59, A60, A61, A62. Plutella xylostella (Diamond back moth): 24-well microtiter plate (MTP) with artificial diet was treated with test solutions at an application rate of 200 ppm (concentration in well 18 ppm) by pipetting. After drying, the MTP's were infested with L2 larvae (7-12 per well). After an incubation period of 6 days, samples were checked for larval mortality and growth regulation. The following compound gave at least 80% control of Plutella xylostella: A1, A2, A5, A6, A7, A8, A9, A10, A11, A12, A13, A14, A15, A16, A17, A18, A19, A20, A21, A22, A24, A25, A30, A31, A32, A33, A34, A35, A37, A38, A39, A40, A42, A43, A44, A45, A46, A47, A48, A49, A50, A51, A52, A53, A54, A55, A57, A58, A59, A60, A61, A62, B3. Diabrotica balteata (Corn root worm): A 24-well microtiter plate (MTP) with artificial diet was treated with test solutions at an application rate of 200 ppm (concentration in well 18 ppm) by pipetting. After drying, the MTP's were infested with L2 larvae (6-10 per well). After an incubation period of 5 days, samples were checked for larval mortality and growth regulation. The following compound gave at least 80% control of Diabrotica balteata: A1, A2, A5, A6, A7, A10, A11, A12, A13, A14, A15, A16, A17, A18, A19, A21, A22, A24, A25, A30, A31, A32, A33, A34, A35, A38, A39, A40, A42, A43, A44, A45, A46, A47, A48, A49, A50, A59, A60, A61, A62. Thrips tabaci (Onion thrips): Sunflower leaf discs were placed on agar in a 24-well microtiter plate and sprayed with test solutions at an application rate of 200 ppm. After drying, the leaf discs were infested with an […] population of mixed ages. After an incubation period of 7 days, samples were checked for mortality. The following compounds gave at least 80% control of Thrips tabaci: A1, A2, A5, A6, A7, A8, A10, A12, A13, A14, A15, A16, A17, A18, A19, A21, A24, A25, A30, A31, A32, A33, A34, A35, A39, A42, A43, A44, A45, A46, A47, A48, A49, A50, A51, A53, A54, A57, A58, A59, A60, A61, A62. Tetranychus urticae (Two-spotted spider mite): Bean leaf discs on agar in 24-well microtiter plates were sprayed with test solutions at an application rate of 200 ppm. After drying, the leaf discs are infested with mite populations of mixed ages. 8 days later, discs are checked for egg mortality, larval mortality, and adult mortality. The following compound gave at least 80% control of Tetranychus urticae: A1, A2, A4, A5, A6, A7, A8, A10, A11, A12, A13, A14, A15, A16, A17, A18, A19, A20, A21, A22, A30, A31, A32, A33, A34, A35, A39, A40, A41, A42, A43, A44, A45, A46, A47, A48, A49, A50, A51, A53, A54, A55, A57, A59, A60, A61, A62.

[2] = system: Thrips tabaci (Onion thrips); assay: Thrips tabaci sunflower leaf disc spray test; settings: for pest or weed control at 200 ppm: foliar, 168 h, 200 ppm spray on sunflower leaf discs, population of mixed ages, mortality after 7 days; for effect on mortality, feeding behavior, or growth regulation: same protocol, 200 ppm
Protocol: as §1, §2

[3] = system: Tetranychus urticae (Two-spotted spider mite); assay: Tetranychus urticae bean leaf disc spray test; settings: for pest or weed control at 200 ppm: foliar, 192 h, 200 ppm spray on bean leaf discs, mite populations of mixed ages, egg, larval and adult mortality 8 days later, read-out: control of Tetranychus urticae; for effect on mortality, feeding behavior, or growth regulation: same protocol, 200 ppm
Protocol: as §1, §2

Row | Compound | pest or weed control at 200 ppm [1] [%] | pest or weed control at 200 ppm [2] [%] | pest or weed control at 200 ppm [3] [%] | effect on mortality, feeding behavior, or growth regulation [1] | effect on mortality, feeding behavior, or growth regulation [2] | effect on mortality, feeding behavior, or growth regulation [3]
1 | O=C(NC1C[S+]([O-])C1)c1ccc(C2=NOC(c3cc(Cl)cc(Cl)c3)(C(F)(F)F)C2)c2ccccc12 (stereo not drawn) [A16] | ≥ 80 | ≥ 80 | ≥ 80 |  |  | 
2 | Cc1nc2c(C3=NOC(c4cc(Cl)cc(Cl)c4)(C(F)(F)F)C3)ccc(C(=O)NC3CS(=O)(=O)C3)c2o1 (stereo not drawn) [A26] |  |  |  | little or no effect | little or no effect | little or no effect
3 | CC1(NC(=O)c2cccc3c(C4=NOC(c5cc(Cl)cc(Cl)c5)(C(F)(F)F)C4)cccc23)CSC1 (stereo not drawn) [A36] |  |  |  | little or no effect | little or no effect | little or no effect
4 | Cc1cc(C2=NOC(c3cc(Cl)cc(Cl)c3)(C(F)(F)F)C2Br)ccc1C(=O)NC1CSC1 (stereo not drawn) [A6] | ≥ 80 | ≥ 80 | ≥ 80 |  |  | 
5 | Cc1cc(C2=NCC(c3cc(Cl)cc(Cl)c3)(C(F)(F)F)C2)ccc1C(=O)NC1CSC1 (stereo not drawn) [A49] | ≥ 80 | ≥ 80 | ≥ 80 |  |  | 
6 | Cc1cc(C2=NCC(c3cc(Cl)cc(Cl)c3)(C(F)(F)F)C2)ccc1C(=O)NC1CS(=O)(=O)C1 (stereo not drawn) [A46] | ≥ 80 | ≥ 80 | ≥ 80 |  |  | 
7 | Cc1cc(C2CC(c3cc(Cl)cc(Cl)c3)(C(F)(F)F)ON2C)ccc1C(=O)NC1CS(=O)(=O)C1 (stereo not drawn) [A19] | ≥ 80 | ≥ 80 | ≥ 80 |  |  | 
8 | O=C(NC1C[S+]([O-])C1)c1ccc(C2=NOC(c3cc(Cl)cc(Cl)c3)(C(F)(F)F)C2Br)c2ccccc12 (stereo not drawn) [A44] | ≥ 80 | ≥ 80 | ≥ 80 |  |  | 
9 | Cc1cc(N2CC(c3cc(Cl)cc(Cl)c3)(C(F)(F)F)OC2=O)ccc1C(=O)NC1C[S+]([O-])C1 (stereo not drawn) [A10] | ≥ 80 | ≥ 80 | ≥ 80 |  |  | 
10 | Cc1nc2c(C3=NOC(c4cc(Cl)cc(Cl)c4)(C(F)(F)F)C3)ccc(C(=O)NC3CSC3)c2o1 (stereo not drawn) [A29] |  |  |  | little or no effect | little or no effect | little or no effect
11 | CC1(NC(=O)c2ccc(C3=NOC(c4cc(Cl)cc(Cl)c4)(C(F)(F)F)C3Br)c3ccccc23)CSC1 (stereo not drawn) [A43] | ≥ 80 | ≥ 80 | ≥ 80 |  |  | 
12 | Cc1cc(C2=NOC(c3cc(Cl)cc(Cl)c3)(C(F)(F)F)C2F)ccc1C(=O)NC1C[S+]([O-])C1 (stereo not drawn) [A62] | ≥ 80 | ≥ 80 | ≥ 80 |  |  | 
